Key:
Sus scrofa [1] = species: Sus scrofa; assay: Concentration required for relaxation of PGF2-alpha (3 uM)-precontracted porcine pulmonary arteries; activity expressed as pD2
Sus scrofa [2] = species: Sus scrofa; assay: Concentration required for relaxation of isolated porcine coronary arteries; activity expressed as pD2; assay type: functional

pD2 (Sus scrofa [1]) | SMILES | pD2 (Sus scrofa [2])
5.4 | CC(C)N(CC(O)COc1cccc2ccccc12)C(=O)C(C)(C)CO[N+](=O)[O-] (centres undefined) | 
 | CC(=O)N[C@@H](C(=O)O)C(C)(C)SN=O | 6.69
6.94 | CC(=O)N[C@@H](C(=O)N(CC(O)COc1cccc2ccccc12)C(C)C)C(C)(C)SN=O (some centres undefined) | 

SMILES | pD2 (Sus scrofa [1]) | pD2 (Sus scrofa [2])
CC(C)(CO[N+](=O)[O-])C(=O)O | 4.69 | 

Reference: ChEMBL document CHEMBL1137883, “Synthesis and vasorelaxant properties of hybrid molecules out of NO-donors and the beta-receptor blocking drug propranolol” (2004)
